Experimental findings from publication PMC10034409 (Frontiers in Pharmacology, 2023) are described below.

What is called IC50 is the concentration at which inhibition is half-maximal. The Ki is a measure of affinity in units of concentration, obtained from inhibition or displacement.

The target of assay [1] is T1, BChE (Homo sapiens, UniProt P06276).
T1 construct: purchased Sigma Aldrich (Steinheim, Germany)
As to the kind of experiment: biochemical. The assay is classed as biochemical. The conditions noted are these: for Ki: mean ± SEM, mean of four values from Lineweaver-Burk plot, its secondary re-plots and Dixon plot. As to the method:
(§1) The test compounds were prepared fresh immediately before each experiment. Test compounds were added to 150 µl […] phosphate buffer (pH 8.0), 200 µl methanol, and 20 µl of the test enzymes and were incubated at 25°C for 15 min. A sample with an equal amount of solvent (ethanol) in place of the test compounds served as a negative control. 10 μl of DTNB reagent was added to the samples, and the reaction was initiated by adding 10 μl acetylthiocholine (ATCh) or butyrylthiocholine (BTCh) for the estimation of AChE and BChE, respectively. All the experiments were conducted in triplicate. […] The rate of enzyme inhibition was calculated as the change in optical density per minute (OD/min).
(§2) The enzyme inhibition activities of serially diluted concentrations of test compounds were measured, and the IC50 values were calculated using EZ-Fit Enzyme Kinetics Program.
(§3) The dissociation constant (Ki) values, which signified the dissociation of the enzyme-inhibitor complex into free enzyme and inhibitor, were also determined. […] These velocities were obtained over a range of substrate concentrations between 0.1 and 0.4 mM for ATCh and 0.05 and 0.2 mM for BTCh. The assay conditions for measurement of the residual activities of all inhibitors were identical to the aforementioned spectrophotometric assay procedure, except that the fixed concentrations of inhibiting compounds were used in the assay medium. Assays were conducted in triplicate at each concentration of the inhibitor.
(§4) The inhibition patterns of tested coumarins were determined by the graphical views of Dixon plots, Lineweaver-Burk plots, and their secondary re-plots. […] The linear regression analysis values, correlation coefficient, slope, intercept, and standard errors were obtained using the same software. Two different methods were applied to monitor the effects of the test sample on both Michaelis constant (K m ) and maximum velocity (V max) values. […] The secondary re-plots of the Lineweaver-Burk were also constructed in two ways; firstly, the reciprocal of apparent V max (1/V maxapp ) values were determined at each intersection point for every inhibitor concentration line on the y-axis of the Lineweaver-Burk plot and then re-plotted against different concentrations of the respective inhibitor. […] The secondary re-plot of the Dixon plot was constructed as the slope of each line of substrate concentration in the original Dixon plot against the reciprocals of substrate concentrations.

The target of assay [2] is T2, AChE (Homo sapiens, UniProt P22303).
T2 construct: purchased Sigma Aldrich (Steinheim, Germany)
Kind of assay: biochemical. The assay is classed as biochemical. The following applies: for AChE IC50 / IC50: mean ± SEM of 3 experiments; for Ki: mean ± SEM, mean of four values from Lineweaver-Burk plot, its secondary re-plots and Dixon plot. As for the experimental part:
as §1, §2, §3, §4

SMILES strings stand for the structures. Entries after “also recorded” stand apart in the source; their conditions may differ.

T2 sequence (P22303 32-614): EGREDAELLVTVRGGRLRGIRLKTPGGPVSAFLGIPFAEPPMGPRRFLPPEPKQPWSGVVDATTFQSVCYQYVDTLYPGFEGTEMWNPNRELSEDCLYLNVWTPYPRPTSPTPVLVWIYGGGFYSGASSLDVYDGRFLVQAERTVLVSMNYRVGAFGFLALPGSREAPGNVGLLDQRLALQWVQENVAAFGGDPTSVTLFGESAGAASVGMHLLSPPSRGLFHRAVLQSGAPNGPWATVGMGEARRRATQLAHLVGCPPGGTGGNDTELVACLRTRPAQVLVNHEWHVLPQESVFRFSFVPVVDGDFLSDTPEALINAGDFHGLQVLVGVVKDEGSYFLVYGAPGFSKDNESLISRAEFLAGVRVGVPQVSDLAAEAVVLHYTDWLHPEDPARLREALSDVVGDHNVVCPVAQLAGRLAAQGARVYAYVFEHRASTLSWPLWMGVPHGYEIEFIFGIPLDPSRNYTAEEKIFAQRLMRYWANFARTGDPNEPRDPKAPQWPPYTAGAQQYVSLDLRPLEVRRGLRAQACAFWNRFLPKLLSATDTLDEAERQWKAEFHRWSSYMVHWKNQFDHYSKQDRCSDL
T1 sequence (P06276 29-602): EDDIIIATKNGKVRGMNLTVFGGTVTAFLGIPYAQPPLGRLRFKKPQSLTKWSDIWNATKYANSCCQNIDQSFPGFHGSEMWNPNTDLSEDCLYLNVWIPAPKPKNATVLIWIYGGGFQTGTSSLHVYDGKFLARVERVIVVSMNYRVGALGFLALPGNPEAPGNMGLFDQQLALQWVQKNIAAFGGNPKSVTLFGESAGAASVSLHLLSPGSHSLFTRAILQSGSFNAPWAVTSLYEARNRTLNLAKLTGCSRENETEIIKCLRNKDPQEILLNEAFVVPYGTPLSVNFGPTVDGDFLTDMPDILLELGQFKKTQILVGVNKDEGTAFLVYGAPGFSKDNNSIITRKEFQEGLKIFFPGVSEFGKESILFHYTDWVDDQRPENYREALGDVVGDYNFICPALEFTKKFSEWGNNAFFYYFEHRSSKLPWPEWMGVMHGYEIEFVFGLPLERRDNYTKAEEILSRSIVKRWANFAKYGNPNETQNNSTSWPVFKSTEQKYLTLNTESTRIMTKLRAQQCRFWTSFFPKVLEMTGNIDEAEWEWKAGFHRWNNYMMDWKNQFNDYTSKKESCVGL

Regarding `C=C(C)[C@@H](OCC)[C@@H](O)c1c(OC)ccc2ccc(=O)oc12` [2′-O-Ethylmurrangatin (1), 2′-O-ethylmurrangatin], in assay [1] (mean ± SEM of 3 experiments), the “BChE IC50” value was “very weak activity” and the IC50 is 843 ± 13 µM. The “AChE IC50” value in assay [2] is reported as “No activity upto 1 mM”. For the same compound, in assay [2] (listed as 2′-O-ethylmurrangatin (1)), the “AChE IC50” value is given as “not active at 1 mM conc; also recorded: did not show any inhibition”.
Consider `COc1ccc2ccc(=O)oc2c1C(O)C(=O)C(C)C` (centres unmarked) [Murranganone (2), murranganone], for which, in assay [1], the “Type of inhibition of BChE (in words)” value is “mixed-type inhibition” and the Ki stood at 22 ± 0.44 µM. Also, in assay [1] (mean ± SEM of 3 experiments), the IC50 is 74.3 ± 0.75 µM. Moreover, the “BChE Type of inhibition” value in assay [1] (table abbreviations) is listed as “LM ^e”. In assay [2], the “Type of inhibition of AChE (in words)” value is “pure non-competitive inhibition”, the IC50 worked out at 79.1 ± 2.02 µM and the Ki worked out at 50 ± 0.58 µM. For the same compound, the “AChE Type of inhibition” value in assay [2] (table abbreviations) is listed as “NC ^d”.
As to `COc1ccc2ccc(=O)oc2c1C(OC(=O)CC(C)C)C(=O)C(C)C` (centres unmarked) [Paniculatin (3), paniculatin], in assay [1], the “Type of inhibition of BChE (in words)” value is “mixed-type inhibitor” and the Ki came to 22 ± 0.6 µM. Moreover, in assay [2], the “Type of inhibition of AChE (in words)” value is listed as “mixed-type inhibitor”, the IC50 is 31.6 ± 0.03 µM and the Ki turned out to be 43 ± 0.65 µM.
